These results are taken from ChEMBL document CHEMBL1155575, “Kirkinine, a new daphnane orthoester with potent neurotrophic activity from Synaptolepis kirkii” (2000).

What all share (type): functional, Gallus gallus
Assay [1] in a line: Neurotrophic activity against chick embryo dorsal root ganglion assessed as neuronal viability at 700 nM after 2 days by Calcein-AM assay.
The nature of assay [2]: Neurotrophic activity against chick embryo dorsal root ganglion assessed as neuronal viability at 7000 nM after 2 days by Calcein-AM assay.
The nature of assay [3]: Neurotrophic activity against chick embryo dorsal root ganglion assessed as neuronal viability at 70 nM after 2 days by Calcein-AM assay.

As for `C=C(C)[C@@]12O[C@@]3(/C=C/CCCCCCCCCCCCC)O[C@@H]1[C@@H]1[C@@H]4O[C@]4(CO)[C@@H](O)[C@]4(O)C(=O)C(C)=C[C@H]4[C@@]1(O3)[C@H](C)[C@H]2OC(C)=O` [KIRKININE], the Activity was 103% in assay [1], 142% in assay [2] and 57% in assay [3].
